Experimental data as given in patent US12661410B2, “Compounds for targeted degradation of RET” (C4 Therapeutics, Inc., priority 2020, dated 2026).
Where two headings read alike, the source gives them in different places.

Experiments:
RET (658-1114) = biological target: T1, RET (658-1114) (Homo sapiens, UniProt P07949); experiment: HiBiT-Degradation, RET wild-type degradation assay (Nano-Glo HiBiT Lytic), 293T.144 cells; assay type: cell-based
T1 construct: 658-1114; expressed in transfected cells; host or cells: 293T.144 (293T cells, generated in-house)
T1 sequence (P07949 658-1114): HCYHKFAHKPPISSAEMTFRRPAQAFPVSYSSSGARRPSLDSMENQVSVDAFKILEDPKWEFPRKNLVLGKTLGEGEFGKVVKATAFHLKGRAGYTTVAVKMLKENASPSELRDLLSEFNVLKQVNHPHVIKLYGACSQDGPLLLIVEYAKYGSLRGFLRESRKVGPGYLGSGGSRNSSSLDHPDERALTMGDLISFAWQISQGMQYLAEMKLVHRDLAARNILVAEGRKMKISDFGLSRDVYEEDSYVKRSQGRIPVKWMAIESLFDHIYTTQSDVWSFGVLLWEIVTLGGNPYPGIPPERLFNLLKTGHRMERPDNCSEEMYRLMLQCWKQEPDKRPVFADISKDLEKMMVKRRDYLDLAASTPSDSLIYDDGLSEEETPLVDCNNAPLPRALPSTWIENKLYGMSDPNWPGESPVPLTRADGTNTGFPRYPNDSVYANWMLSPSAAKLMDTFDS
How it was run: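 Cells were plated and dosed with an 11-point half-log series (highest 10 μM) in duplicate. After 6 hours they were lysed with HiBiT lytic detection reagent and luminescence measured. DC50 and percent remaining protein (Emax) came from the dose-response curves.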

[1] = Body weight of mice bearing CR^2518 tumors; assay type: in vivo; details: after 14 days of daily treatment, 5 mg/kg IV
Procedure: For PDX model CR^2518, tumors were first grown in stock mice, then tumor fragments were harvested and inoculated into the right flank of female BALB/c nude mice for tumor development. Tumor volume and body weight were measured twice weekly. Tumor volume was measured in two dimensions using calipers, and volume (mm^3) was calculated using the formula: V=0.5 a×b^2 where a and b are the long and short diameters of the tumor in mm, respectively. Once tumors reached an average volume of 150 mm^3, the animals were divided randomly into groups of 5, stratified to result in about equal average tumor sizes in each treatment group, and dosing was initiated on Day 1
Compound 122 was administered once a day intravenously (IV) at 5 mg/kg for 14 days. Compound 122 was formulated in 40% PEG400 and 60% of 10% hydroxypropyl beta cyclodextrin (HPPCD) in double distilled water, which was also used for the vehicle group. Body weight and tumor volume were measured on a 2× weekly schedule. Data are represented as MTV±SEM.

[2] = Plasma and brain tumor concentration in mice bearing intracranial CR^2518 tumors (LC/MS/MS); assay type: in vivo; details: female, BALB/c nude, mouse, single IV dose 30 mg/kg, mice bearing CR^2518 brain tumors
Procedure: (§1) For intracranial PDX model CR^2518, tumors were first grown in stock mice, then tumor fragments were harvested and digested for cell suspension preparation. 5×10^5 CR^2518 cells in 4 μl PBS were injected intracranially over 5 min, 2.5 mm intraparenchymally, 2 mm lateral from and 0.5 mm anterior to the bregma for tumor development in female BALB/c nude mice. With the appearance of clinical signs (body weight loss, inactivity), mice were randomized into groups of 3, stratified to result in about equal average body weight, and dosing was initiated on Day 0.
(§2) Compound 122 was formulated in 40% PEG400 and 60% of 10% hydroxypropyl beta cyclodextrin (HPPCD) in double distilled water, which was also used for the vehicle group. […] Tumor volume was measured in two dimensions using calipers, and volume (mm^3) was calculated using the formula: V=0.5 a×b^2 where a and b are the long and short diameters of the tumor in mm, respectively.
(§3) 3 tumors and plasma samples were collected per each time point sampled. For pharmacokinetic analysis, plasma and tumor samples were injected into LC/MS/MS system for quantitative analysis. […] Protein concentration was quantified using a Pierce™ BCA Protein Assay Kit, samples were reduced, and equal protein amounts were then loaded onto a western blot gel for analysis. […]

RET = biological target: T2, RET (Homo sapiens, UniProt P07949); experiment: RET protein level in CR^2518 brain tumors (western blot); assay type: in vivo, mice; details: single IV dose 5 mg/kg or 30 mg/kg, at 5 hours
T2 construct: from tissue; host or cells: CR2518 PDX brain tumours in female BALB/c nude mice; the other entry of the earlier key: CCDC6 (Q16204, Coiled-coil domain-containing protein 6)
Procedure: as §1, §2, §3

T2 sequence (P07949 with tags, fused parts or gaps): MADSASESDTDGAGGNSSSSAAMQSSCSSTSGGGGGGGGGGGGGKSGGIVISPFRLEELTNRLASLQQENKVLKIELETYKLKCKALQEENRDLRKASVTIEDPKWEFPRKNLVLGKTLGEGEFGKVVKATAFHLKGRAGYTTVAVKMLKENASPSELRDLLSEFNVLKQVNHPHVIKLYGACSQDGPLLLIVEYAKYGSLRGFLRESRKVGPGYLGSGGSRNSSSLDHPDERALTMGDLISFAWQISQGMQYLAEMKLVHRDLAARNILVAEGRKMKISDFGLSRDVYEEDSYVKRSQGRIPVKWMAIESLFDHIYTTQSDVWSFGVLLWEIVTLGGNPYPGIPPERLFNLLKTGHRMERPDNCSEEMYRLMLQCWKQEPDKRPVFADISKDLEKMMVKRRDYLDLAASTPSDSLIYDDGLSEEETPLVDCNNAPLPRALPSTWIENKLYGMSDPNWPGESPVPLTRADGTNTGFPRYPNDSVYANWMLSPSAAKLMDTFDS
T2 sequence (Q96SW2 whole entry partner, the tested form may be a part): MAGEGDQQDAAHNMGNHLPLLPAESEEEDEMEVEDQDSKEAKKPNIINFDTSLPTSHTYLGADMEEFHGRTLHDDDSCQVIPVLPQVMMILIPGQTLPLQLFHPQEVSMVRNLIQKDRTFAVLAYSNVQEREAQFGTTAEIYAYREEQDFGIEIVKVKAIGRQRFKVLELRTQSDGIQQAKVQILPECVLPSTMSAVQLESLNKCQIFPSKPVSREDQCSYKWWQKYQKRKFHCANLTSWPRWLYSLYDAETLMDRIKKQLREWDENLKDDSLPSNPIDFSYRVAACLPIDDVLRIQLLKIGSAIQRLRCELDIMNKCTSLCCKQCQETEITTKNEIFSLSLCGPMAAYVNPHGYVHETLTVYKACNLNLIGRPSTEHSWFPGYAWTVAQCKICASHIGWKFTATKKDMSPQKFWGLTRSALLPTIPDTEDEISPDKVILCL

CCC1(C(=O)NC(C)C)CCN(c2ccc(-c3nc(-c4cnn([C@H]5CC[C@H](N6CCC(c7ccc(NC8CCC(=O)NC8=O)cc7F)CC6)CC5)c4)cn4ncc(C#N)c34)cn2)CC1 (single isomer, unassigned) [Compound 122, 1-(5-(3-cyano-6-(1-((1r, 4r)-4-(4-(4-((2,6-dioxopiperidin-3-yl)amino)-2-fluorophenyl)piperidin-1-yl)cyclohexyl)-1H-pyrazol-4-yl)pyrazolo[1,5-a]pyrazin-4-yl)pyridin-2-yl)-4-ethyl-N-isopropylpiperidine-4-carboxamide]
293T.144 RET (658-1114) 6.0 hours (IP) [nM] (RET (658-1114)): ++++ (<50 nM = ++++) | Emax (RET (658-1114); 6.0 hours, % remaining protein, read-out: 293T.144 RET (658-1114) 6.0 hours (Emax)): < 30% | DC50 (RET (658-1114); 6.0 hours, half-maximal degradation concentration, read-out: 293T.144 RET (658-1114) 6.0 hours (DC50)): < 50 nM | body weight loss [1]: No body weight loss | concentration at 5 h ([2]; brain tumor, read-out: brain tumor concentration): 2840 ng/g | concentration at 5 h ([2]; plasma, read-out: plasma concentration): 1720 ng/mL | reduction in RET protein levels in brain tumors (RET): 75-80%
